Results: ChEMBL document CHEMBL1938285, “Novel inhibitors of Mycobacterium tuberculosis dTDP-6-deoxy-L-lyxo-4-hexulose reductase (RmlD) identified by virtual screening” (Bioorg Med Chem Lett, 2011)
Converted amounts (≈) assume the structure as drawn. The source made the active and inactive calls. No cut-off for these calls is given here.

Experiments:
[1] = biological target: T1, dTDP-4-dehydrorhamnose reductase (Mycobacterium tuberculosis) (UniProt P9WH09); test: Inhibition of Mycobacterium tuberculosis RmlD assessed as inhibition of dTDP-beta-6-deoxy-L-lyxo-4-hexulose to dTDP-beta-L-rhamnose conversion at 10 ug/ml
T1 sequence (whole entry): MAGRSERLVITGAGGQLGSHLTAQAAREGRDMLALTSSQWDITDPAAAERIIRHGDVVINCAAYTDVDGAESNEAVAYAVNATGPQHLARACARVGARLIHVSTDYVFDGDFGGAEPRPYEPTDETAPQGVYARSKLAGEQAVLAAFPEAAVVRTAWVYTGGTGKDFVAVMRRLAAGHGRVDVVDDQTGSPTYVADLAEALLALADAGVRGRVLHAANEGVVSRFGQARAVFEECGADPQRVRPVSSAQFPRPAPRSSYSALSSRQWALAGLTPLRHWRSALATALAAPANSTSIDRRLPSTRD

[2] = biological target: T2, dTDP-4-dehydrorhamnose reductase (Mycobacterium tuberculosis, UniProt P9WH09); test: Inhibition of Mycobacterium tuberculosis RmlD assessed as inhibition of dTDP-beta-6-deoxy-L-lyxo-4-hexulose to dTDP-beta-L-rhamnose conversion
T2 sequence (P9WH09 whole entry): T1 sequence (whole entry)

[3] = test system: Mycobacterium tuberculosis; test: Antimycobacterial activity against Mycobacterium tuberculosis H37Rv after 7 days by microbroth dilution-resazurin assay; type: functional; settings: 168 h

Row | Compound | inhibition [1] | IC50 [2] [µM] | MIC [3] [µg/mL]
1 | O=C1CC(c2ccccc2)c2ccc(O)cc2O1 (configuration not stated) | inactive |  | 
2 | CSc1ncc2ncn([C@@H]3O[C@H](CO)[C@@H](O)[C@H]3O)c2n1 | inactive |  | 
3 | O=C(c1ccc(O)cc1)c1ccc(C(=O)c2ccc(O)cc2)cc1 | inactive |  | 
4 | O=c1cc2oc3cc(O)c(O)cc3c(-c3ccccc3)c-2cc1O |  | 0.9 | 200 (≈ 624 µM)
5 | CCC(c1ccc(O)cc1)C(CC)c1ccc(O)c(O)c1 (configuration not stated) | inactive |  | 
6 | O=c1oc2c(cc1O)oc(=O)c1cc(O)c(O)c(O)c12 | inactive |  | 
7 | Oc1ccc2c(O)c3ccccc3cc2c1O | inactive |  | 
8 | COc1cccc2c1[C@H](CO)N1[C@H](C#N)[C@@H]3C[C@H](C(=O)O)[C@@H]([C@@H]1C2)N3C | inactive |  | 
9 | CCC(c1ccccc1)C(CC)c1cc(O)c(O)c(O)c1 (configuration not stated) | inactive |  | 
10 | CC(c1cccc(O)c1)C(C)c1cccc(O)c1 (configuration not stated) | inactive |  | 
11 | Oc1cc(C(c2ccccc2)c2ccccc2)c2ccccc2c1O | inactive |  | 
12 | O=C(/C=C/c1ccc2ccccc2n1)c1cc(Cl)ccc1O | inactive |  | 
13 | O=C(/C=C/c1ccc(O)c(O)c1)O[C@@H]1C[C@@](OC(=O)/C=C/c2ccc(O)c(O)c2)(C(=O)O)C[C@@H](O)[C@@H]1O | inactive |  | 
14 | Cc1cc(O)c2cc3c(O)c(O)ccc3cc2c1 | inactive |  | 
15 | Oc1ccc(-c2ccc3ccccc3c2)cc1 | inactive |  | 
16 | COc1cc(C(=O)C(=O)c2cc(OC)c(O)c(OC)c2)cc(OC)c1O | inactive |  | 
17 | Cc1c2cc(O)c(=O)cc-2oc2cc(O)c(O)cc12 |  | 15 | 62 (≈ 240 µM)
18 | CC(=O)OCc1cc(-c2nc3ccccc3nc2O)nn1-c1ccc(Cl)cc1 | inactive |  | 
19 | COc1ccccc1/C=C/C(=O)/C=C/c1ccccc1O | inactive |  | 
20 | C[C@@H]1O[C@@H](Oc2c(-c3cc(O)c(O)c(O)c3)oc3cc(O)cc(O)c3c2=O)[C@H](O)[C@H](O)[C@H]1O | inactive |  | 
21 | CC(=O)Oc1c(C)c(OC(C)=O)c2c(c1C(C)=O)OC1CC(=O)C(C(C)=O)=C(O)C21C (configuration not stated) | inactive |  | 
22 | CC(Cc1ccc(O)c(O)c1)C(C)Cc1ccc(O)c(O)c1 (configuration not stated) | inactive |  | 
23 | Cc1cc2c(cc1C)NC1=C(N2)OC(c2cccc(O)c2)C1=O (configuration not stated) | inactive |  | 
24 | C=Cc1c(C)c(O)cc2c1-c1ccc(O)c(C)c1CC2 | inactive |  | 
25 | Cc1c(Cl)cccc1Nc1ncccc1C(=O)OCC(O)CO (configuration not stated) | inactive |  | 

Row | Compound | inhibition [1] | IC50 [2] [µM] | MIC [3] [µg/mL]
26 | O=c1ccc2c(-c3ccccc3O)c3ccc(O)cc3oc-2c1 | inactive |  | 
27 | O=C(OCC(O)COC(=O)c1cccnc1)c1cccnc1 | inactive |  | 
28 | O=C1C(Cl)=C(Nc2ccc3c[nH]nc3c2)C(=O)c2ccccc21 | inactive |  | 
29 | C=Cc1cc(O)cc2c1-c1ccc(O)c(C)c1CC2 [EFFUSOL] |  |  | 20 (≈ 79.3 µM)
30 | N#Cc1cnn2ccn([C@@H]3O[C@H](CO)[C@@H](O)[C@H]3O)c12 | inactive |  | 
31 | Oc1ccc(C(c2ccc(O)cc2)c2ccc(O)cc2)cc1 | inactive |  | 
32 | O[C@@H]1[C@@H](OCc2ccccc2)OC[C@H](O)[C@@H]1O | inactive |  | 
33 | COc1cc(NC(=O)c2cc3ccccc3cc2O)c(OC)cc1Cl | inactive |  | 
34 | CCC(c1ccccc1)C(CC)c1ccc(O)c(O)c1 (configuration not stated) | inactive |  | 
35 | COc1cc(/N=N/c2c(O)nc3ccccc3c2O)c(OC)cc1/N=N/c1ccccc1 | inactive |  | 
36 | COc1ccc(OC)c(NC(=O)c2cc3oc4ccccc4c3cc2O)c1 | inactive |  | 
37 | Cn1c(=O)c2nc(CNc3ccc(C(=O)O)cc3)[nH]c2n(C)c1=O | inactive |  | 
38 | O=C(O)/C=C/c1c2ccc(=O)c(O)c-2oc2c(O)c(O)ccc12 | inactive |  | 
39 | O=C1C=C(c2ccccc2)OC(=O)C1C(=O)c1ccccc1 (configuration not stated) | inactive |  | 
40 | NC(=S)c1cn([C@@H]2O[C@H](CO)[C@@H](O)[C@H]2O)c2ncnc(N)c12 | inactive |  | 
41 | Cc1cc(=O)oc2cc(O)c(O)cc12 | inactive |  | 
42 | Cc1ccc(NC(=O)Nc2cccnc2)cc1NC(=O)Nc1cccnc1 | inactive |  | 
43 | CCC(CC)C(c1ccc(O)cc1)c1ccc(O)cc1 | inactive |  | 
44 | N=C(N)c1ccc(/C=C/c2ccc(C(=N)N)cc2O)cc1 | inactive |  | 
45 | Oc1ccc(C(O)(c2ccccc2)c2ccc(O)c3ccccc23)c2ccccc12 | inactive |  | 
46 | COc1ccc(NC(=O)c2cc3ccc4c5ccccc5[nH]c4c3cc2O)cc1 | inactive |  | 
47 | NC(=O)CC[C@@H](C(=O)O)N1C(=O)c2ccc(O)cc2C1=O | inactive |  | 
48 | COc1ccccc1NC(=O)c1cc2cc(Br)ccc2cc1O | inactive |  | 
49 | O=C1C=CC=CC1=C1c2cc(O)c(O)cc2Oc2cc(O)c(O)cc21 |  | 2.1 | 133 (≈ 395 µM)
